Results: patent US8404747B2, “Compositions and methods for modulating interaction between polypeptides” (The General Hospital Corporation, priority 2004, dated 2013)
Where two headings read alike, the source gives them in different places. One block for each compound: values may come before it.

Experiments:
[1] = tested on: SP1 trancription factor binding motif (6XSP1) promoter; test: 6XSP1 luciferase transcription-based assay in 111Q/111Q striatum double knock-in cells; type: cell-based, mouse; conditions: 6XSP1 luciferase reporter; for transcription activation: CG4 among CG series, less potent than C9-4
Method: FIGS. 1A-1C. FIG. 1A is a bar graph showing luciferase expression in Sp1-luc/111Q striatum double knock-in cells following treatment with different compounds, as indicated. Fluorescence was measured 24 hours after addition of compound. FIG. 1B is a bar graph as described in FIG. 1A. Fluorescence was measured 48 hours after addition of compound. FIG. 1C is a bar graph as described in FIG. 1A. Fluorescence was measured 72 hours after addition of compound.
We conducted structure activity relationship (SAR) studies to optimize transcription activation. We developed a novel transcription-based assay for this purpose. A luciferase reporter gene was stably integrated into 111Q/111Q striatum double knock-in cells and constitutively expressed under control of a promoter containing six copies of the SP1 trancription factor binding motif (6XSP1). In this system, C9 was determined to have an EC200 of 7.5 μM.

[2] = tested on: aggregation of 103Q in PC12 cells; test: polyQ (103Q) aggregation in ecdyson-inducible PC12 cells; type: cell-based, rat; conditions: Rattus norvegicus, PC-12
Method: To study the inhibitors we identified using the yeast screen in mammalian cells, we employed ecdyson-inducible rat phaeochromocytoma (PC12) cells. Compounds were tested in two clones, 14A2/5 and 14A2/6, with highest aggregation rate. We incubated undifferentiated PC12 cells with muristerone A to induce 103Q expression, and we exposed the cells to compounds at concentrations ranging from 1 to 10 μM. […] All compounds were non-toxic except C2, which was toxic at concentrations higher than 5 μM.
We tested these analogs at concentrations ranging from 0.025 μM to 5.0 μM for their effects on polyQ aggregation in PC12 cells. Among 24 analogs of C1; 28 analogs of C2; 24 analogs of C3, and 53 analogs of C4, we identified several potent inhibitors of polyQ aggregation. From our C2 focus library, we isolated compound C2-8 (B2 in Table 2), which inhibits polyQ aggregation with an IC50 value 50 nM. We also identified C2-10 (B6 in Table 2) and C2-11 (M16 (formula V(n)) in Table 5), and B7, B8 and B9 in Table 2. From our C3 focus library, we isolated compound C3-5 (M22 (formula V(t)) in Table 5) (having an IC50 value of 100 nM) and compound C3-6 (M17 (formula V(o)) in Table 5) (having an IC50 value of 5 μM). From our C4 library, we isolated compound C4-7 (A31 in Table 1), which has an IC50 value 100 nM. We also identified C4-34 (A3 in Table 1).

[3] = tested on: HD Q51 aggregates in Cos1 cells; test: HD Q51 aggregation in transfected Cos1 cells, cellulose acetate membrane trap; type: cell-based; conditions: Chlorocebus aethiops, COS-1; Cos1 cells transfected with HD Q51; read-out: IC50, polyQ aggregation (retained polyQ on membrane)
Method: The inhibitory activity we observed with C1-C4 in the PC12 cell model described above was confirmed in Cos1 cells transiently transfected with a CMV promoter-based DNA construct that encodes an Htt exon I fragment of Huntington's disease protein (Htt)) having 51 consecutive glutamine residues (HD Q51). When expressed in Cos1 cells, HD 51Q polypeptides readily form aggregates. Transfected Cos1 cells were incubated with C1-C4 compounds in culture medium and lysed. The lysates were then heat-denatured in SDS and passed through a cellulose acetate membrane, which captures aggregated, but not soluble polypeptides. Polyglutamine aggregates trapped on membranes were detected by immunostaining with antibody specific to extended polyQ. Pre-incubation of cells with compounds C1, C3, and C4 decreased the amount of retained polyQ, indicating inhibitory effects on polyQ aggregation. The IC50 for compound C1 was 10 μM and the IC50 for compounds C3 and C4 was 5 μM. As C2 was toxic for Cos1 cells, its effect on aggregation was not determined.

[4] = target: T1, Recombinant HD Q51 polypeptide (Homo sapiens, UniProt P42858, INS38QQQQQQQQQQQQQQQQQQQQQQQQQQQQQQ); test: cell-free trap assay of purified polyQ; type: biochemical; conditions: cell-free trap assay; read-out: IC50, aggregation of purified polyQ
T1 construct: made in house
Method: To determine whether C2 could directly interfere with polyQ aggregation, we reproduced this process in vitro and assayed the inhibitory effects of the compounds in a cell-free trap assay. Recombinant HD Q51 polypeptide, purified from bacteria, was incubated in the presence or in the absence of C2 for a time sufficient to allow aggregation. Then, upon heat-denaturation in SDS buffer, samples were filtered through a cellulose acetate membrane. Harsh denaturation conditions separated unaggregated soluble peptides, which passed through the membrane, and insoluble aggregates, which were retained on the membrane. The polyQ aggregates trapped on the membrane were subsequently immunostained and quantified.
Congo Red, which is structurally unrelated to C2-8, was used as a control.

[5] = tested on: polyQ aggregates (HD Q150) in neurons of R6/2 mouse brain slices; test: polyQ aggregation in R6/2 brain slice cultures; type: cell-based; conditions: 3-week time point
Method: The effects of the selected compounds on polyQ aggregation in neuronal tissues were assessed in brain slice cultures from the transgenic mouse R6/2 model of HD. R6/2 mice ubiquitously express human Huntingtin exon I containing 150Q (HD Q150), which causes neuropathology resembling key neurological changes in HD patients. Formation of neuronal polyQ aggregates precedes pathological behavioural changes in R6/2 mice. An organotypic slice culture assay has been developed in order to establish an ex vivo system that closely models the process of aggregation occurring in R6/2 mouse brains. […] The potency of any aggregate inhibitor can be assessed directly in neurons in brain slices (thus bypassing the blood brain barrier, the major obstacle to test compounds in neuronal tissues).
Aggregation in brain slice cultures was assessed during four weeks using three parameters: (1) the number of aggregates per square millimeter, (2) the density of individual aggregates, and (3) the size of the aggregates. These parameters can be assessed in any of the assays described herein. […] To obtain statistically significant data, 20 sections for each sample were quantified with a macro computer program (Paul Wetton at Image Associates, UK), which measured aggregate count, aggregate density and aggregate size. […]

cells = test: nonspecific toxicity to cells; type: cell-based
HDAc = HDAc activity; type: biochemical; conditions: at high concentrations; down-regulation of HDAc 5
[6] = tested on: polyQ-containing polypeptides; test: aggregation of polyQ-containing polypeptides, assay not specified
htt103Q-EGFP = test: PC12 htt103Q-EGFP fluorescence assay; type: cell-based; conditions: PC12 cells
From the text: A PC12 cell line was engineered to express extended polyQ under the control of an ecdysone-inducible promoter. In the assay cell line, an N-terminal fragment of htt containing an extended polyQ tract was stably expressed as a fusion with EGFP (htt103Q-EGFP), from the pIND vector. Expression of extended polyQ in these cells was controlled by addition of an ecdysone analog, in this case muristerone A. In this assay, EGFP fluorescence directly correlated with htt103Q-EGFP expression levels. This system was designed to assess the effects of specific compounds on overall levels of extended polyglutamines in cells, using a simple fluorescent-based read-out.

[7] = tested on: mutant Huntingtin transgene (htt); test: transgene (mutant htt, extended polyQ) expression in inducible PC12 cells; type: cell-based, rat; conditions: PC12 cells, with scriptaid
From the text: (§1) The compound C9 (A33 in Table 1) has structural similarity to the histone deacetylase (HDAc) inhibitor, scriptaid (6-(1,3-Dioxo-1H,3H-benzo[de]isoquinolin-2-yl)-N-hydroxyhexanamide) (Su et al., Cancer Res. 60:3137, 2000; A5 in Table 1). We observed the most dramatic effect on expression level by C9 and scriptaid in the PC12 cell line 14A2/6 expressing the extended polyQ mutant htt(104Q). The effect of C9 on the down-regulation of polyQ expression, was similar to cystamine, a drug that has shown efficacy in a mouse model for Huntington's Disease (HD). […] 14A2/6 cells were at least 5-fold more responsive to chemical treatment than other cell lines tested.
Transcriptional dysregulation is a hallmark of HD. […] Expression of the polypeptide was under control of an inducible ecdysone receptor (EcR)-based promoter.

PC12 cells = test: rescue from scriptaid-dependent synthetic lethality in PC12 cells; type: cell-based, rat
From the text: as §1

R2/6 HD mice = conditions: cited from earlier work
[8] = PC12 clones 14A2/5 and 14A2/6, muristerone A induced, 1 to 10 μM, read-out: IC50, aggregation of 103Q
[9] = PC12 cells, focus library analogs, 0.025 μM to 5.0 μM, read-out: IC50, polyQ aggregation

T1 sequence (P42858 with tags, fused parts or gaps with the stated changes): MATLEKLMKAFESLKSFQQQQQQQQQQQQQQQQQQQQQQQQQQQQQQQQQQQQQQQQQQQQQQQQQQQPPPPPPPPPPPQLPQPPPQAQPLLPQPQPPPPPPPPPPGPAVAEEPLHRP

Compound: CCN1C(=O)c2cccc3c(NC(C)=O)ccc1c23 [CG4, N-(1-Ethyl-2-oxo-1,2-dihydro-benzo[cd]indol-6-yl)-acetamide]
transcription activation [1]: most potent transcriptional activator

IC50 [2, 8]: 10 µM
Compound: CN(C)CCN1C(=O)c2ccc(Cl)c3c(Cl)ccc(c23)C1=O [Compound C1, 6,7-Dichloro-2-(2-dimethylamino-ethyl)-benzo[de]isoquinoline-1,3-dione]
IC50 [3]: 10 µM

IC50 [2, 9]: 0.05 µM
IC50 [4]: 25 µM
Compound: O=C(Nc1ccc(Br)cc1)c1cccc(S(=O)(=O)Nc2ccc(Br)cc2)c1 [Compound C2-8, N-(4-Bromo-phenyl)-3-(4-bromo-phenylsulfamoyl)-benzamide]
concentration inhibiting aggregates intensity and area [5]: 10 µM

IC50 [2, 8]: 5 µM
Compound: CC/C(=C/c1sc2ccc3ccccc3c2[n+]1CCCS(=O)(=O)[O-])SC [Compound C3, 3-[2-(2-Methylsulfanyl-but-1-enyl)-naphtho[1,2-d]thiazol-1-yl]-propane-1-sulfonic acid anion]
IC50 [3]: 5 µM

IC50 [2, 9]: 5 µM
Compound: c1ccc(-c2nc3cnc4ccccc4c3s2)cc1 [Compound C3-6, 2-Phenyl-thiazolo[4,5-c]quinoline]

IC50 [2, 8]: 2.5 µM
Compound: O=C1c2cccc3c(N4CCOCC4)ccc(c23)C(=O)N1Cc1ccccc1 [Compound C4, 2-Benzyl-6-morpholin-4-yl-benzo[de]isoquinoline-1,3-dione]
IC50 [3]: 5 µM

IC50 [2, 9]: 0.1 µM
Compound: O=C1c2cccc3c(N4CCCCC4)ccc(c23)C(=O)N1CO [Compound C4-7, 2-Hydroxymethyl-6-piperidin-1-yl-benzo[de]isoquinoline-1,3-dione]

Compound: CN(C)CCN1C(=O)c2cccc3cccc(c23)C1=O [Compound C9-1B, 2-(2-Dimethylamino-ethyl)-benzo[de]isoquinoline-1,3-dione]
range of weak nonspecific toxicity (cells): 1.25 to 5.0 µM
EC200, transcription activation [1]: 50 nM

Compound: O=C1c2cccc3cccc(c23)C(=O)N1CCNCO [Compound C9-3, 2-[2-(Hydroxymethyl-amino)-ethyl]-benzo[de]isoquinoline-1,3-dione]
transcription activation [1]: did not effectively activate transcription

Compound: O=C1c2cccc3cccc(c23)C(=O)N1CCN1CCCCC1 [Compound C9-4, 2-(2-Piperidin-1-yl-ethyl)-benzo[de]isoquinoline-1,3-dione]
HDAc inhibitory activity (HDAc): indirect HDAc inhibitory activity

Compound: CN(C)CCCN1C(=O)c2cccc3cccc(c23)C1=O [Compound C91, 2-(3-Dimethylamino-propyl)-benzo[de]isoquinoline-1,3-dione]
effect on aggregation [6]: facilitate protein-protein aggregation
EC200, transcription activation [1]: 4000 nM

Compound: CCN(CC)C(=O)c1sc(NC(=O)c2ccc(F)cc2)c(C(=O)OC(C)C)c1C [Compound D3, 5-Diethylcarbamoyl-2-(4-fluoro-benzoylamino)-4-methyl-thiophene-3-carboxylic acid isopropyl ester]
effect on protein aggregation (htt103Q-EGFP): facilitators of protein aggregation

Compound: CCOC(=O)c1sc(NC(=O)c2cc(S(N)(=O)=O)c(Cl)cc2Cl)c(C(=O)OCC)c1C [Compound D4, 5-(2,4-Dichloro-5-sulfamoyl-benzoylamino)-3-methyl-thiophene-2,4-dicarboxylic acid diethyl ester]
effect on protein aggregation (htt103Q-EGFP): inhibit protein aggregation

Compound: NCCSSCCN [cystamine, reference compound]
effect on scriptaid-stimulated expression and aggregation [7]: reversed the stimulatory effect
rescue from scriptaid-dependent synthetic lethality (PC12 cells): rescued
protein aggregation (R2/6 HD mice): blocked protein aggregation
survival (R2/6 HD mice): prolonged the survival
